Assay results as given in patent US20110118275A1, “OXAZOLO[4,5-c]PYRIDINE SUBSTITUTED PYRAZINE” (ASTRAZENECA AB, priority 2009, published 2011).

Tests used:
[1] = biological target: T1, recombinant Axl tyrosine kinase (Homo sapiens, UniProt P30530); assay: In vitro Axl kinase assay (AlphaScreen); format: biochemical; settings: Ki calculated from IC50, Km for ATP 0.2 μM
T1 construct: GST (N); made in house; host or cells: SF126 insect cells
T1 sequence (P30530 473-894): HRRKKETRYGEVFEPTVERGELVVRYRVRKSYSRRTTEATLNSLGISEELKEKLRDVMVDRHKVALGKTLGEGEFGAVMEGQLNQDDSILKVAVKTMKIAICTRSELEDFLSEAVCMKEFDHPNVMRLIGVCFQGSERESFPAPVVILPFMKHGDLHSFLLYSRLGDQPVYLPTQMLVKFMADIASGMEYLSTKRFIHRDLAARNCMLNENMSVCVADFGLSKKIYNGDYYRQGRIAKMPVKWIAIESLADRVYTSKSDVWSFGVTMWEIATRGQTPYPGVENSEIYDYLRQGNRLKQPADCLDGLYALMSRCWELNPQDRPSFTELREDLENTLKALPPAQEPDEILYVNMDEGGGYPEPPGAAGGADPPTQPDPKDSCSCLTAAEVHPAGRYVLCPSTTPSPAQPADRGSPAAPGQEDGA
From the text: Determination of the In Vitro Axl Kinase Assay.
The following assays can be used to measure the effects of the compounds of the present invention as inhibitors of Axl tyrosine kinase enzyme, as inhibitors in vitro of the phosphorylation of Axl expressed on NCI H1299 lung large cell carcinoma cells. The assay used AlphaScreen technology (Gray et al., Analytical Biochemistry, 2003, 313: 234-245) to determine the ability of test compounds to inhibit phosphorylation by recombinant Axl tyrosine kinase.
N-terminal GST-Axl kinase domain encompassing amino acids 473 to 894 of Axl (GenBank Accession No NM_021913) was expressed in […] insect cells and purified using the GST epitope tag, using standard purification techniques.
Test compounds were prepared as 10 mM stock solutions in dimethylsulphoxide (DMSO) and diluted in DMSO as required. […]
Each reaction was stopped by the addition of 5 μl of a mixture of 500 mM EDTA, 3 mg/ml bovine serum albumin (BSA) and 20 mM Tris-HCl pH 7.4 buffer containing 40 ng/μl AlphaScreen Streptavidin donor and anti-p-Tyr-100 acceptor beads (Perkin Elmer, Catalogue No. 6760620M). The resultant signals arising from laser light excitation at 680 nm were read using a Packard Envision instrument. […]

[2] = Hygroscopicity by Dynamic Vapor Sorption (DVS); format: physicochemical; settings: 25° C.
Procedure: Description of the Dynamic Vapor Sorption (DVS) Method Used
The weight change over time as a function of relative humidity (RH) at 25° C. was measured in a DVS Advantage, equipped with a SMS ultrabalance using DVS Advantage Control Software Version 1.2.0.21, from Surface Measurement Systems, London, UK.
Carrier gas was nitrogen 200 ml/minute. The sample amount was circa 10 mg. The equilibrium criteria, for each step, was set to 0.002%/minute with DMDT Window 5 minutes, DMDT Min Time 10 minutes and DMDT Max Time 360 minutes as defined in the Control Software. DMDT uses the percentage rate of change of mass with time (dm/dt) to determine whether a sample has come to equilibrium.
DMDT Window (min): The time window, over which a straight line is fitted to the mass data in order to calculate a value of dm/dt.
DMDT Min Time (min): The time that the measured dm/dt must satisfy the specified dm/dt criteria before switching to the next Method Stage.
DMDT Max Time (min): The maximum time a Method Stage will run in dm/dt mode before switching to the next Method Stage—regardless of whether the dm/dt criterion has been satisfied.
The sample was initially dried at 0% RH and the water vapor sorption was measured as weight gain after stepwise increase to 10, 20, 30, 40, 50, 60, 70, 80, 90 and 95% relative humidity. After stepwise drying using the same relative humidities in reverse order down to 0% RH a second sorption curve was obtained.

recombinant human GSK3β = biological target: T2, recombinant human GSK3β (Homo sapiens, UniProt P49841); assay: Determination of GSK3β activity in Scintillation Proximity Assay; format: biochemical; settings: Km of ATP 3 μM used to calculate Ki; 1 μmol/L ATP; read-out: mean GSKβ Ki value
T2 construct: purchased Dundee University, UK
Procedure: Determination of GSK3β activity in Scintillation Proximity Assay.
The inhibition experiments were carried out in duplicate with 10 concentrations of the inhibitor in 384 well clear-bottom microtitre plates. A biotinylated peptide substrate (Biotin-Ala-Ala-Glu-Glu-Leu-Asp-Ser-Arg-Ala-Gly-Ser(PO3H2)-Pro-Gln-Leu (AstraZeneca, Lund)), was added at a final concentration of 1 μmol/L in an assay buffer (pH 7.0) containing 0.6 mU recombinant human GSK3β (Dundee University, UK), (˜5 nmol/L active enzyme), 10 mmol/L morpholinepropanesulfonic acid (MOPS), 0.3 mmol/L EDTA, 0.01% (v/v) (3-mercaptoethanol, 0.003% (w/v) polyethylene 23 lauryl ether (Brij 35), 0.4% glycerol and 0.02 mg bovine serum albumine (BSA) and preincubated for 10 minutes. The reaction was initiated by the addition of 0.06 μCi [γ-33P]ATP (Amersham, UK) and unlabelled ATP in 30 mmol/L Mg(Ac)2 to a final concentration of 1 μmol/L ATP. The final assay volume was 15 μL. Blank controls without peptide substrate were used. After incubation for 15 min at room temperature, the reaction was terminated by the to addition of stop solution containing 1.3 mmol/L EDTA, 13 μmol/L ATP, 0.02% Triton™X-100 and 0.15 mg streptavidin coated SPA beads. After a 5 minutes centrifugation at 2000 rpm, the radioactivity was measured in a liquid scintillation counter (1450 MicroBeta Trilux, Perkin Elmer, Finnland). […]

T2 sequence (P49841 whole entry): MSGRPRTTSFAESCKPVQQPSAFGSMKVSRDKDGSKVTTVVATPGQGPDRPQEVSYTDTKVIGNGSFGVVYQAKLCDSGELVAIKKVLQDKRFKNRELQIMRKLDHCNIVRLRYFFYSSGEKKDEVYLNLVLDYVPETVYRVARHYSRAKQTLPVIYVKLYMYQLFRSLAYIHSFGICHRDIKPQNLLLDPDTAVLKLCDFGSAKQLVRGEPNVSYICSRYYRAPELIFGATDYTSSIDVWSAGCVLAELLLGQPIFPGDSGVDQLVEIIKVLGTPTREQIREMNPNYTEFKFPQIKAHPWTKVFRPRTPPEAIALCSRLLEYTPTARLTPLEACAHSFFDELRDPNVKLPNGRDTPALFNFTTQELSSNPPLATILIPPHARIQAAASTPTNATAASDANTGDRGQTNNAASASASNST

CN1CCN(C(=O)c2ccc(-c3cnc(N)c(-c4nc5cnccc5o4)n3)cc2)CC1 [Example 1, (4-(5-Amino-6-(oxazolo[4,5-c]pyridin-2-yl)pyrazin-2-yl)phenyl)(4-methylpiperazin-1-yl)methanone]
Ki [1]: 113 nM | Average weight gain ([2]; 0% RH): 0.0% | Weight gain calculated as molar equivalents of water ([2]; 0% RH): 0.0 molar equivalents of water | Weight gain first sorption curve ([2]; 0% RH): 0.00% | Weight gain second sorption curve ([2]; 0% RH): 0.00% | Average weight gain ([2]; 10% RH): 0.1% | Weight gain calculated as molar equivalents of water ([2]; 10% RH): 0.0 molar equivalents of water | Weight gain first sorption curve ([2]; 10% RH): 0.12% | Weight gain second sorption curve ([2]; 10% RH): 0.14% | Average weight gain ([2]; 20% RH): 2.4% | Weight gain calculated as molar equivalents of water ([2]; 20% RH): 0.5 molar equivalents of water | Weight gain first sorption curve ([2]; 20% RH): 2.34% | Weight gain second sorption curve ([2]; 20% RH): 2.41% | Average weight gain ([2]; 30% RH): 3.1% | Weight gain calculated as molar equivalents of water ([2]; 30% RH): 0.7 molar equivalents of water | Weight gain first sorption curve ([2]; 30% RH): 3.09% | Weight gain second sorption curve ([2]; 30% RH): 3.14% | Average weight gain ([2]; 60% RH): 4.7% | Weight gain calculated as molar equivalents of water ([2]; 60% RH): 1.1 molar equivalents of water | Weight gain first sorption curve ([2]; 60% RH): 4.72% | Weight gain second sorption curve ([2]; 60% RH): 4.65% | Average weight gain ([2]; 90% RH): 9.2% | Weight gain calculated as molar equivalents of water ([2]; 90% RH): 2.1 molar equivalents of water | Weight gain first sorption curve ([2]; 90% RH): 9.16% | Weight gain second sorption curve ([2]; 90% RH): 9.19% | Ki (recombinant human GSK3β): 2.3 nM

Nc1ncc(-c2ccc(C(=O)N3CCNCC3)cc2)nc1-c1nc2cnccc2o1 [Example 14, (4-(5-Amino-6-(oxazolo[4,5-c]pyridin-2-yl)pyrazin-2-yl)phenyl)(piperazin-1-yl)methanone]
Ki (recombinant human GSK3β): 3.2 nM
